Assays:
[1] = cited from earlier work
[2] = Storage and handling stability of activated ester synthons; format: physicochemical; settings: for stability on handling in the lab: open handling in the lab, humid environment, 1H NMR
Excerpt: With the knowledge of proton chemical shift and peak splitting pattern of products, we were able to analyse the crude reaction mixtures and quickly determine the relative amount of the products in the reaction mixture. Molecule 1 produced a 57% yield of 5 (monosubstituted) when treated with 1.0 equiv nucleophile. The desymmetrization of 2 behaved similarly, and after separation and characterization the crude reaction mixture produced a 38% yield of 6 (monosubstituted derivative). […] When the same reaction was run for two equivalents of hexylamine, 1 produced 7 (disubstituted) in 48% yield and 2 produced 8 in 54% yield. […] With promising results, we then turned to desymmetrization of the penta-fluorophenol synthon, 3. […] After ^1H NMR analysis, we were able to determine the ratio of substituted derivatives in the crude reaction mixture (a similar pattern of doublet/triplets and singlets was observed as in the desymmetrization of 1). […] Both desymmetrization reactions yielded higher than statisctical yields and the products were able to be readily isolated via column chromatography. When developing a reactive synthon for desymmetrization, stability and scalability are also important factors to consider. […] Purification of 1 and 2 required a large volume of solvents owing to limited solubility (100s of mL for 10s of mg), while 3 offered a short one-step work up with good solubility.
Due to its ease of synthesis, stability, desymmetrization, and purification, 3 was determined to be the best candidate to work with moving forward. […] Furthermore, the stability of the F5Ph esters on 3 also offers easy separation of desymmetrized intermediates using flash column chromatography.
In order to test the applicability of the reaction methodology to different amine based neuclopehiles/side-arms, we attempted a few different amines. […] (Scheme 3).

[3] = under an inert (and dry) atmosphere

stability on storage [2, 3] | Structure (SMILES) | pka [1] | stability on handling in the lab [2] | further results
 | Oc1c(F)c(F)c(F)c(F)c1F [2,3,4,5,6-pentafluorophenol] | 5.4 |  | 
 | O=[N+]([O-])c1cccc(O)c1 [3-nitrophenol] | 8.36 |  | 
 | O=C1CCC(=O)N1O [N-hydroxy succinimide] | 6.0 |  | 
 | O=C(Oc1cccc([N+](=O)[O-])c1)c1cc(C(=O)Oc2cccc([N+](=O)[O-])c2)cc(C(=O)Oc2cccc([N+](=O)[O-])c2)c1 [compound 1] |  | started to hydrolyze | stability on storage ([2]; in a desiccator): stable in a desiccator when stored for a year
 | O=C(Oc1ccc([N+](=O)[O-])cc1)c1cc(C(=O)Oc2ccc([N+](=O)[O-])cc2)cc(C(=O)Oc2ccc([N+](=O)[O-])cc2)c1 [compound 2] |  | started to hydrolyze | stability on storage ([2]; in a desiccator): stable in a desiccator when stored for a year
stable over years | O=C(Oc1c(F)c(F)c(F)c(F)c1F)c1cc(C(=O)Oc2c(F)c(F)c(F)c(F)c2F)cc(C(=O)Oc2c(F)c(F)c(F)c(F)c2F)c1 [compound 3, 1,3,5-benzenetricarbonylpentafluoroester] |  | stable for more than two years | 
stable over months | CCCCCCNC(=O)c1cc(C(=O)Oc2c(F)c(F)c(F)c(F)c2F)cc(C(=O)Oc2c(F)c(F)c(F)c(F)c2F)c1 [compound 9] |  |  | 
stable over months | CCCCCCNC(=O)c1cc(C(=O)NCCCCCC)cc(C(=O)Oc2c(F)c(F)c(F)c(F)c2F)c1 [compound 10] |  |  | 
